Assay results: ChEMBL document CHEMBL4270599, “Synthesis of a 3'-C-ethynyl-β-d-ribofuranose purine nucleoside library: Discovery of C7-deazapurine analogs as potent antiproliferative nucleosides” (Eur J Med Chem, 2018)

Columns and labels:
Assay type in all cases: functional
Hs-578T [1] = assay: Growth inhibition of human Hs 578T cells assessed as cell growth at 10^-5 M incubated for 48 hrs by sulforhodamine B assay relative to control; details: read-out: Activity
SF-268 = assay: Growth inhibition of human SF268 cells assessed as cell growth at 10^-8 M incubated for 48 hrs by sulforhodamine B assay relative to control; details: SF-268, 48 h, read-out: Activity
OVCAR-3 = assay: Growth inhibition of human OVCAR3 cells assessed as cell growth at 10^-6 M incubated for 48 hrs by sulforhodamine B assay relative to control; details: OVCAR-3, 48 h, read-out: Activity
SNB-19 = assay: Growth inhibition of human SNB19 cells assessed as cell growth at 10^-5 M incubated for 48 hrs by sulforhodamine B assay relative to control; details: SNB-19, 48 h, read-out: Activity
OVCAR-5 [2] = assay: Growth inhibition of human OVCAR5 cells assessed as cell growth at 10^-4 M incubated for 48 hrs by sulforhodamine B assay relative to control; details: OVCAR-5, 48 h, read-out: Activity
U-251 = assay: Growth inhibition of human U251 cells assessed as cell growth at 10^-7 M incubated for 48 hrs by sulforhodamine B assay relative to control; details: U-251, 48 h, read-out: Activity
TK-10 = assay: Growth inhibition of human TK10 cells assessed as cell growth at 10^-6 M incubated for 48 hrs by sulforhodamine B assay relative to control; details: TK-10, 48 h, read-out: Activity
NCI/ADR-RES = assay: Growth inhibition of human NCI/ADR-RES cells assessed as cell growth at 10^-8 M incubated for 48 hrs by sulforhodamine B assay relative to control; details: read-out: Activity
SN12C [3] = assay: Cytotoxicity against human SN12C cells after 48 hrs by SRB assay; details: for CC50: read-out: pLC50 (the source's name) (converted)
UACC-257 [4] = assay: Growth inhibition of human UACC257 cells assessed as cell growth at 10^-5 M incubated for 48 hrs by sulforhodamine B assay relative to control; details: UACC-257, 48 h, read-out: Activity
SK-MEL-5 [5] = assay: Growth inhibition of human SK-MEL-5 cells assessed as cell growth at 10^-8 M incubated for 48 hrs by sulforhodamine B assay relative to control; details: SK-MEL-5, 48 h, read-out: Activity
EKVX = assay: Growth inhibition of human EKVX cells assessed as cell growth at 10^-6 M incubated for 48 hrs by sulforhodamine B assay relative to control; details: read-out: Activity
NCI-H322M = assay: Growth inhibition of human NCI-H322M cells assessed as cell growth at 10^-6 M incubated for 48 hrs by sulforhodamine B assay relative to control; details: read-out: Activity
OVCAR-4 = assay: Growth inhibition of human OVCAR4 cells assessed as cell growth at 10^-7 M incubated for 48 hrs by sulforhodamine B assay relative to control; details: OVCAR-4, 48 h, read-out: Activity
HOP-62 = assay: Growth inhibition of human HOP62 cells assessed as cell growth at 10^-8 M incubated for 48 hrs by sulforhodamine B assay relative to control; details: HOP-62, 48 h, read-out: Activity
UACC-62 = assay: Growth inhibition of human UACC62 cells assessed as cell growth at 10^-5 M incubated for 48 hrs by sulforhodamine B assay relative to control; details: UACC-62, 48 h, read-out: Activity
OVCAR-5 [6] = assay: Growth inhibition of human OVCAR5 cells assessed as cell growth at 10^-7 M incubated for 48 hrs by sulforhodamine B assay relative to control; details: OVCAR-5, 48 h, read-out: Activity
HCT-116 = assay: Cytotoxicity against human HCT116 cells after 48 hrs by SRB assay; details: HCT-116, 48 h; for GI50: read-out: pGI50 (converted)
UACC-257 [7] = assay: Growth inhibition of human UACC257 cells assessed as cell growth at 10^-7 M incubated for 48 hrs by sulforhodamine B assay relative to control; details: UACC-257, 48 h, read-out: Activity
SK-MEL-5 [8] = assay: Growth inhibition of human SK-MEL-5 cells assessed as cell growth at 10^-7 M incubated for 48 hrs by sulforhodamine B assay relative to control; details: SK-MEL-5, 48 h, read-out: Activity
Hs-578T [9] = assay: Cytotoxicity against human Hs 578T cells after 48 hrs by SRB assay; details: for GI50: read-out: pGI50 (converted)
MOLT-4 = assay: Growth inhibition of human MOLT4 cells assessed as cell growth at 10^-7 M incubated for 48 hrs by sulforhodamine B assay relative to control; details: MOLT-4, 48 h, read-out: Activity
786-0 = assay: Growth inhibition of human 786-0 cells assessed as cell growth at 10^-8 M incubated for 48 hrs by sulforhodamine B assay relative to control; details: 786-0, 48 h, read-out: Activity
A549 = assay: Growth inhibition of human A549/ATCC cells assessed as cell growth at 10^-6 M incubated for 48 hrs by sulforhodamine B assay relative to control; details: A549, 48 h, read-out: Activity
HCC 2998 = assay: Growth inhibition of human HCC2998 cells assessed as cell growth at 10^-8 M incubated for 48 hrs by sulforhodamine B assay relative to control; details: HCC 2998, 48 h, read-out: Activity
OVCAR-5 [10] = assay: Cytotoxicity against human OVCAR5 cells after 48 hrs by SRB assay; details: OVCAR-5, 48 h; for GI50: read-out: pGI50 (converted)
SR = assay: Growth inhibition of human SR cells assessed as cell growth at 10^-5 M incubated for 48 hrs by sulforhodamine B assay relative to control; details: read-out: Activity
NCI-H522 = assay: Growth inhibition of human NCI-H522 cells assessed as cell growth at 10^-8 M incubated for 48 hrs by sulforhodamine B assay relative to control; details: NCI-H522, 48 h, read-out: Activity
KM12 = assay: Cytotoxicity against human KM12 cells after 48 hrs by SRB assay; details: KM12, 48 h
UO-31 = assay: Growth inhibition of human UO31 cells assessed as cell growth at 10^-6 M incubated for 48 hrs by sulforhodamine B assay relative to control; details: UO-31, 48 h, read-out: Activity
SN12C [11] = assay: Growth inhibition of human SN12C cells assessed as cell growth at 10^-6 M incubated for 48 hrs by sulforhodamine B assay relative to control; details: read-out: Activity
UACC-257 [12] = assay: Growth inhibition of human UACC257 cells assessed as cell growth at 10^-6 M incubated for 48 hrs by sulforhodamine B assay relative to control; details: UACC-257, 48 h, read-out: Activity
BT-549 = assay: Growth inhibition of human BT549 cells assessed as cell growth at 10^-6 M incubated for 48 hrs by sulforhodamine B assay relative to control; details: BT-549, 48 h, read-out: Activity
Hs-578T [13] = assay: Growth inhibition of human Hs 578T cells assessed as cell growth at 10^-8 M incubated for 48 hrs by sulforhodamine B assay relative to control; details: read-out: Activity
[14] = read-out: LC50 (the source's name)
[15] = read-out: pLC50 (the source's name) (converted)

Which results are given for `C#C[C@@]1(O)[C@@H](CO)O[C@@H](n2cc(F)c3c(N)ncnc32)[C@@H]1O`?
growth at 10 µM (Hs-578T [1]): 18%; growth at 0.01 µM (SF-268): 100%; growth at 1 µM (OVCAR-3): 52%; growth at 10 µM (SNB-19): 7%; growth at 100 µM (OVCAR-5 [2]): 7%; growth at 0.1 µM (U-251): 99%; growth at 1 µM (TK-10): 42%; growth at 0.01 µM (NCI/ADR-RES): 100%; TGI (SN12C [3]; read-out: TGI): 4.74 µM; CC50 (SN12C [3]): > 100 µM; TGI (SN12C [3]; read-out: pTGI (converted)): 4.79 µM; growth at 10 µM (UACC-257 [4]): -17%; growth at 0.01 µM (SK-MEL-5 [5]): 92%; growth at 1 µM (EKVX): 43%; growth at 1 µM (NCI-H322M): 31%; growth at 0.1 µM (OVCAR-4): 90%; growth at 0.01 µM (HOP-62): 90%; growth at 10 µM (UACC-62): -60%; growth at 0.1 µM (OVCAR-5 [6]): 108%; CC50 (HCT-116; [14]): > 100 µM; GI50 (HCT-116): 0.151 µM; growth at 0.1 µM (UACC-257 [7]): 85%; growth at 0.1 µM (SK-MEL-5 [8]): 78%; CC50 (Hs-578T [9]; [14]): > 100 µM; TGI (Hs-578T [9]; read-out: TGI): > 100 µM; GI50 (Hs-578T [9]): 3.98 µM; TGI (Hs-578T [9]; read-out: pTGI): > 100 µM; growth at 0.1 µM (MOLT-4): 86%; growth at 0.01 µM (786-0): 94%; growth at 1 µM (A549): 19%; growth at 0.01 µM (HCC 2998): 98%; CC50 (OVCAR-5 [10]; [14]): > 100 µM; TGI (OVCAR-5 [10]; read-out: TGI): > 100 µM; GI50 (OVCAR-5 [10]): 1.78 µM; TGI (OVCAR-5 [10]; read-out: pTGI (converted)): > 100 µM; growth at 10 µM (SR): 4%; growth at 0.01 µM (NCI-H522): 84%; CC50 (KM12; [14]): > 100 µM; TGI (KM12; read-out: TGI): 24.9 µM; GI50 (KM12; read-out: pGI50 (converted)): 0.501 µM; TGI (KM12; read-out: pTGI (converted)): 25.1 µM; growth at 1 µM (UO-31): 23%; growth at 1 µM (SN12C [11]): 17%; growth at 1 µM (UACC-257 [12]): 34%; growth at 1 µM (BT-549): 45%; growth at 0.01 µM (Hs-578T [13]): 92%

What does the source list for `C#C[C@@]1(O)[C@@H](CO)O[C@@H](n2ccc3c(N)ncnc32)[C@@H]1O`?
growth at 10 µM (Hs-578T [1]): 19%; growth at 0.01 µM (SF-268): 99%; growth at 1 µM (OVCAR-3): 92%; growth at 10 µM (SNB-19): -15%; growth at 100 µM (OVCAR-5 [2]): -31%; growth at 0.1 µM (U-251): 107%; growth at 1 µM (TK-10): 88%; growth at 0.01 µM (NCI/ADR-RES): 97%; TGI (SN12C [3]; read-out: TGI): 3.91 µM; GI50 (SN12C [3]; read-out: pGI50 (converted)): 0.794 µM; CC50 (SN12C [3]): 38 µM; TGI (SN12C [3]; read-out: pTGI (converted)): 3.89 µM; growth at 10 µM (UACC-257 [4]): -16%; growth at 0.01 µM (SK-MEL-5 [5]): 102%; growth at 1 µM (EKVX): 67%; growth at 1 µM (NCI-H322M): 58%; growth at 0.1 µM (OVCAR-4): 97%; growth at 0.01 µM (HOP-62): 87%; growth at 10 µM (UACC-62): -44%; growth at 0.1 µM (OVCAR-5 [6]): 106%; TGI (HCT-116; read-out: TGI): 10.8 µM; GI50 (HCT-116): 0.589 µM; CC50 (HCT-116; [15]): 85.1 µM; TGI (HCT-116; read-out: pTGI (converted)): 10.7 µM; growth at 0.1 µM (UACC-257 [7]): 105%; growth at 0.1 µM (SK-MEL-5 [8]): 101%; TGI (Hs-578T [9]; read-out: TGI): > 100 µM; GI50 (Hs-578T [9]): 4.68 µM; CC50 (Hs-578T [9]; [15]): > 100 µM; TGI (Hs-578T [9]; read-out: pTGI): > 100 µM; growth at 0.1 µM (MOLT-4): 95%; growth at 0.01 µM (786-0): 91%; growth at 1 µM (A549): 56%; growth at 0.01 µM (HCC 2998): 99%; TGI (OVCAR-5 [10]; read-out: TGI): 8.54 µM; GI50 (OVCAR-5 [10]): 3.09 µM; CC50 (OVCAR-5 [10]; [15]): > 100 µM; TGI (OVCAR-5 [10]; read-out: pTGI (converted)): 8.51 µM; growth at 10 µM (SR): 15%; growth at 0.01 µM (NCI-H522): 90%; TGI (KM12; read-out: TGI): 10.9 µM; CC50 (KM12; [15]): 91.2 µM; TGI (KM12; read-out: pTGI (converted)): 11 µM; growth at 1 µM (UO-31): 69%; growth at 1 µM (SN12C [11]): 45%; growth at 1 µM (UACC-257 [12]): 88%; growth at 1 µM (BT-549): 80%; growth at 0.01 µM (Hs-578T [13]): 97%
